According to article PMC7127853 (Bioorganic & Medicinal Chemistry, 2011):

How the values were obtained:
[1] = tested on: human embryonic lung (HEL) fibroblasts; test: Cytotoxicity, cell morphology; assay type: cell-based; settings: HEL cells; minimum cytotoxic concentration altering cell morphology
[2] = tested on: Reovirus-1; test: Antiviral assay, Reovirus-1 in Vero cells; assay type: cell-based; settings: read-out: Antiviral activity: EC50 Reovirus-1 (Vero)
[3] = tested on: Madin Darby canine kidney cells (MDCK); test: Cytotoxicity, cell morphology; assay type: cell-based
[4] = tested on: African green monkey cells (Vero); test: Cytotoxicity, cell morphology; assay type: cell-based
[5] = tested on: HIV-1 (IIIB); test: Anti-HIV-1 assay in CEM cells; assay type: cell-based, human immunodeficiency virus type 1; settings: compared with HDP–PMEA of ref [12]
[6] = tested on: human cytomegalovirus (HCMV) strain AD-169; test: Antiviral assay, HCMV AD-169 in HEL cells; assay type: cell-based; settings: compared with TDP/HDP (S)-HPMPC of ref [11]

| SMILES | Cytotoxicity Cell morphology (MCC) (HEL) [1] [μM] | EC50 [2] [µM] | Cytotoxicity Cell morphology (MCC) MDCK [3] [μM] | also measured |
| --- | --- | --- | --- | --- |
| Nc1ccn(C[C@@H](CO)OCP(=O)(O)O)c(=O)n1.O.O [(S)-HPMPC, Cidofovir] | >317 | – | – | – |
| NC(=O)c1ncn([C@@H]2O[C@H](CO)[C@@H](O)[C@H]2O)n1 [Ribavirin, reference compound] | – | ≥ 174 | >100 | – |
| Nc1ncnc2c1ncn2CCOCP(=O)(OCCOCCCCCCCCCCO)OCCOCCCCCCCCCCO [Compound 9, Bis{2-[(10-Hydroxydecyl)oxy]ethyl} ester of 9-[2-(phosphonomethoxy)ethyl]adenine] | 148 | > 29.7 | 29.7 | Cytotoxicity Cell morphology (MCC) Vero [4]: 148 μM |
| Nc1nc(O)c2ncn(COC(CO)CO)c2n1 [Ganciclovir] | >392 | – | – | – |
| CCOCCOCCOCCOCCOCCOCCOP(=O)(O)COCCn1cnc2c(N)ncnc21 [Compound 12, 3,6,9,12,15,18-Hexaoxaeicosyl ester of 9-[2-(phosphonomethoxy)ethyl]adenine] | – | – | – | Loss of anti-HIV activity compared to HDP–PMEA [5]: > 10^7 fold |
| CCOC(=O)C1=C[C@@H](OC(CC)CC)[C@H](NC(C)=O)[C@@H](N)C1 [Oseltamivir] | – | – | >100 | – |
| O=c1[nH]c(=O)n([C@H]2C[C@H](O)[C@@H](CO)O2)cc1/C=C/Br [Brivudin] | >150 | – | – | – |
| Nc1nc2c(ncn2COCCO)c(=O)[nH]1 [Acyclovir] | >222 | – | – | – |
| Nc1ccn(C[C@@H](CO)OCP(=O)(O)OCCOCCOCCOCCOCCOCCO)c(=O)n1 [Compound 16, 14-Hydroxy-3,6,9,12-tetraoxaheptadecyl ester of (S)-1-[3-hydroxy-2-(phophonomethoxy)propyl]cytosine] | – | – | – | Drop of activity against CMV versus analogous simple alkoxyalkyl ester [6]: 400- to 1000 fold |
| Nc1ncnc2c1ncn2CCOCP(=O)(OCCCCCCCCCCO)OCCCCCCCCCCO [Compound 5, Bis(10-Hydroxydecyl) ester of 9-[2-(phosphonomethoxy)ethyl]adenine] | – | > 34 | – | – |
